Test system: NF-κ B activation
Test: Inhibitory activity of NF-κB activation, luciferase reporter assay under TNF-α stimulation in HepG2
Type: cell-based, human
Conditions: HepG2, TNF-α 40 ng/ml, 4 hours; for inhibition at 1 µg/mL / inhibition at 10 µg/mL: Homo sapiens, read-out: Inhibitory rate against NF-κB activation (%)
Protocol: Measurement of Inhibitory Activity of NF-κB activation
Using a transfection reagent (Effectene; QIAGEN), the human hepatoma cell strain HepG2 was transfected with a plasmid (pNF κ B-Luc Reporter Plasmid; […]) integrated with an oligonucleotide having five tandem copies of NF-κ B binding sequences([…]) on a upstream region of firefly luciferase gene(Luc) according to the QIAGEN's protocol, and the cells were incubated for 6 to 24 hours. After addition of TNF-α (40 ng/ml) in the presence or absence of a test compound, the cells were incubated for 4 hours, and intracellular luciferase activity was measured by using PicaGene LT (TOYO INK MFG Co., Ltd.) and a chemical luminescence measurement apparatus ([…]luor Plus; TECAN). The inhibitory ratio was measured as a ratio relative to the value of the luciferase activity in the absence of the test compound.

| Inhibitory rate against NF-κB activation (%) (Drug concentration at 10 μg/mL) | Compound | Inhibitory rate against NF-κB activation (%) (Drug concentration at 1 μg/mL) | inhibition at 1 µg/mL (Drug concentration at 1 μg/mL) [%] | inhibition at 10 µg/mL (Drug concentration at 10 μg/mL) [%] |
| --- | --- | --- | --- | --- |
| 99.4 | Cc1ccc(O)c(C(=O)Nc2cc(C(F)(F)F)cc(C(F)(F)F)c2)c1 [compound 10] | 95.8 | – | – |
| 97.6 | CCCCOc1ccc(OCCCC)c(NC(=O)c2cc(Cl)ccc2O)c1 [compound 161] | 94.2 | – | – |
| 89.6 | O=C(Nc1cc(N2CCOCC2)ccc1[N+](=O)[O-])c1cc(Cl)ccc1O [compound 174] | – | – | – |
| – | CCOC(=O)c1sc(NC(=O)c2cc(Br)ccc2O)nc1C(C)(C)C [compound 202, 2-(5-Bromo-2-hydroxybenzoyl)amino-4-[(1,1-dimethyl)ethyl]thiazole-5-carboxylic acid ethyl ester] | – | 84.5 | 92.4 |
| 90.3 | O=C(Nc1nnc(C(F)(F)F)s1)c1cc(Br)ccc1O [compound 238] | 26.1 | – | – |
| – | CN1CCN(c2sc(NC(=O)c3cc(Br)ccc3O)nc2C(C)(C)C)CC1 [compound 206, 5-Bromo-N-{4-[(1,1-dimethyl)ethyl]-5-(4-methylpiperazin-1-yl)thiazol-2-yl}-2-hydroxybenzamide] | – | 36.3 | 89.6 |
| – | O=C(Nc1nc(-c2cc(C(F)(F)F)cc(C(F)(F)F)c2)cs1)c1cc(Cl)ccc1O [compound 231, 5-Chloro-2-hydroxy-N-{4-[3,5-bis(trifluoromethyl)phenyl]thiazol-2-yl}benzamide] | – | 95.9 | 94.5 |
| 70.6 | O=C(Nc1cc(Cl)cc(Cl)c1)c1cc([N+](=O)[O-])ccc1O [compound 130] | – | – | – |
| – | CCc1nc(NC(=O)c2cc(Br)ccc2O)oc1CC [compound 234, 5-Bromo-N-(4,5-diethyloxazol-2-yl)-2-hydroxybenzamide] | – | 29.1 | 63.1 |
| 92.6 | Cc1cc(C)cc(NC(=O)c2cc(Br)ccc2O)c1 [compound 137] | 86.3 | – | – |
| – | Cc1cc(Br)cc(C(=O)Nc2cc(C(F)(F)F)cc(C(F)(F)F)c2)c1O [compound 258] | >99.9 | – | – |
| 95.7 | COc1ccc(OC)c(NC(=O)c2cc(Br)ccc2O)c1 [compound 142] | 32.4 | – | – |
| 99.2 | CC(=NOCc1ccccc1)c1ccc(O)c(C(=O)Nc2cc(C(F)(F)F)cc(C(F)(F)F)c2)c1 [compound 15] | 94.5 | – | – |
| 94.7 | CC(=O)Oc1ccc(Cl)cc1C(=O)Nc1cc(C(C)(C)C)cc(C(C)(C)C)c1 [compound 139] | 90.8 | – | – |
| – | O=C(Nc1nc(-c2ccc(Cl)cc2Cl)cs1)c1cc(Cl)ccc1O [compound 255, 5-Chloro-2-hydroxy-N-[4-(2,4-dichlorophenyl)thiazol-2-yl]benzamide] | – | > 99.9 | – |
| – | O=C(Nc1nc(-c2ccc(C(F)(F)F)cc2)cs1)c1cc(Cl)ccc1O [compound 261, 5-Chloro-2-hydroxy-N-{4-[4-(trifluoromethyl)phenyl]thiazol-2-yl}benzamide] | – | > 99.9 | – |

| Inhibitory rate against NF-κB activation (%) (Drug concentration at 10 μg/mL) | Compound | Inhibitory rate against NF-κB activation (%) (Drug concentration at 1 μg/mL) | inhibition at 1 µg/mL (Drug concentration at 1 μg/mL) [%] | inhibition at 10 µg/mL (Drug concentration at 10 μg/mL) [%] |
| --- | --- | --- | --- | --- |
| – | CC(C)(C)c1nc(NC(=O)c2cc(Br)ccc2O)sc1N1CCCCC1 [compound 204, 5-Bromo-N-{4-[(1,1-dimethyl)ethyl]-5-piperidinothiazol-2-yl}-2-hydroxybenzamide] | – | 93.6 | 97.8 |
| 71.8 | O=C(Nc1cc(Cl)cc(Cl)c1)c1ccc(Cl)cc1O [compound 129] | – | – | – |
| – | O=C(Nc1cc(C(F)(F)F)cc(C(F)(F)F)c1)c1cccc(-c2ccccc2)c1O [compound 249, N-[3,5-bis(trifluoromethyl)phenyl]-2-hydroxy-3-phenylbenzamide] | – | 86.6 | 90.7 |
| – | O=C(Nc1cc(C(F)(F)F)cc(C(F)(F)F)c1)c1cc(-c2ccccn2)ccc1O [compound 32, N-[3,5-Bis(trifluoromethyl)phenyl]-2-hydroxy-5-(pyridin-2-yl)benzamide] | – | 90.4 | 99 |
| – | O=C(Nc1cc(C(F)(F)F)cc(C(F)(F)F)c1)c1cc(S(=O)(=O)n2cccc2)ccc1O [compound 42, N-[3,5-Bis(trifluoromethyl)phenyl]-2-hydroxy-5-(pyrrole-1-sulfonyl)benzamide] | – | 84.4 | 98.1 |
| – | CC(C)c1cc(Br)cc(C(=O)Nc2cc(C(F)(F)F)cc(C(F)(F)F)c2)c1O [compound 257] | >99.9 | – | – |
| – | CC(C)(C)c1csc(NC(=O)c2cc(Br)ccc2O)n1 [compound 185, 5-Bromo-N-{4-[(1,1-dimethyl)ethyl]thiazol-2-yl}-2-hydroxybenzamide] | – | 88.4 | 95.2 |
| – | CCCCc1nc(NC(=O)c2cc(Br)ccc2O)sc1-c1ccccc1 [compound 198, 5-Bromo-N-(4-butyl-5-phenylthiazol-2-yl)-2-hydroxybenzamide] | – | 46.1 | 88.7 |
| 98.8 | COc1ccc(C(=O)Nc2ccccc2)cc1NC(=O)c1cc(Cl)ccc1O [compound 157] | 52.6 | – | – |
| 67.2 | Cc1nc(NC(=O)c2cc(Br)ccc2O)sc1C [compound 191] | – | – | – |
| 96.8 | O=C(Nc1cc(F)cc(F)c1)c1cc(Br)ccc1O [compound 123] | 91.8 | – | – |
| 93.7 | O=C(Nc1cc(F)cc(F)c1)c1cc(Cl)ccc1O [compound 180] | 90.7 | – | – |
| – | CC(C)(C)c1nc(NC(=O)c2cc(Br)ccc2O)sc1N1CCOCC1 [compound 205, 5-Bromo-N-{4-[(1,1-dimethyl)ethyl]-5-morpholinothiazol-2-yl}-2-hydroxybenzamide] | – | 87.8 | 96.8 |
| 88.7 | Cc1ccc(O)c(C(=O)Nc2cc(Cl)cc(Cl)c2)c1 [compound 131] | 49.1 | – | – |
| 85.4 | CCOC(=O)c1c(NC(=O)c2cc(Cl)ccc2O)sc2c1CCCC2 [compound 232] | 88.2 | – | – |

| Compound | Inhibitory rate against NF-κB activation (%) (Drug concentration at 10 μg/mL) | Inhibitory rate against NF-κB activation (%) (Drug concentration at 1 μg/mL) | inhibition at 1 µg/mL (Drug concentration at 1 μg/mL) [%] | inhibition at 10 µg/mL (Drug concentration at 10 μg/mL) [%] |
| --- | --- | --- | --- | --- |
| CC(C)(C)c1cc(NC(=O)c2cc([N+](=O)[O-])ccc2O)cc(C(C)(C)C)c1 [compound 146] | 98.5 | 91.2 | – | – |
| CSc1ccc(C(F)(F)F)cc1NC(=O)c1cc(Cl)ccc1O [compound 96] | 99.1 | 94.6 | – | – |
| O=C(Nc1cc(C(F)(F)F)ccc1N1CCCC1)c1cc(Br)ccc1O [compound 97] | 97.8 | 95.8 | – | – |
| O=C(Nc1cc(F)cc(C(F)(F)F)c1)c1cc(Cl)ccc1O [compound 85] | 98.9 | 94.7 | – | – |
| O=C(Nc1cc(C(F)(F)F)ccc1Br)c1cc(Cl)ccc1O [compound 107] | 96.2 | 94.9 | – | – |
| O=C(Nc1cc(C(F)(F)F)cc(C(F)(F)F)c1)c1ccc(O)c(C(=O)Nc2cc(C(F)(F)F)cc(C(F)(F)F)c2)c1 [compound 37] | 94.5 | – | – | – |
| CC(C)(C)c1cc(NC(=O)c2cc(Br)ccc2O)cc(C(C)(C)C)c1 [compound 140] | 82.0 | 70.9 | – | – |
| O=C(Nc1cc(C(F)(F)F)cc(C(F)(F)F)c1)c1c(O)c(Cl)cc(Cl)c1Cl [compound 61] | 97.2 | 95.1 | – | – |
| COc1ccc(C(F)(F)F)cc1NC(=O)c1cc(Br)ccc1O [compound 94] | 93.4 | 76.6 | – | – |
| O=C(Nc1cc(C(F)(F)F)ccc1N1CCOCC1)c1cc(Cl)ccc1O [compound 106] | 92.1 | 92.3 | – | – |
| O=C(Nc1cc(C(F)(F)F)ccc1Oc1ccc(Cl)cc1)c1cc(Cl)ccc1O [compound 118] | 99.5 | 95.0 | – | – |
| CNC(=O)c1sc(NC(=O)c2cc(Br)ccc2O)nc1-c1ccccc1 [compound 220] | 58.6 | 50.8 | – | – |
| COc1ccc(C(F)(F)F)cc1NC(=O)c1cc(Cl)ccc1O [compound 95] | 98.5 | 91.8 | – | – |
| CCOC(=O)c1sc(NC(=O)c2cc(-c3ccc(C(F)(F)F)cc3)ccc2O)nc1-c1ccccc1 [compound 228, 2-{[4-Hydroxy-4′-(trifluoromethyl)biphenyl]-3-carbonyl}amino-4-phenylthiazole-5-carboxylic acid ethyl ester] | 90.0 | – | – | – |
| O=C(Nc1cc(Br)cc(C(F)(F)F)c1)c1cc(Br)ccc1O [compound 86] | 98.7 | 96.7 | – | – |

From patent publication US20080234233A1, “MEDICAMENT FOR TREATMENT OF NEURODEGENERATIVE DISEASES” (INSTITUTE OF MEDICINAL MOLECULAR DESIGN INC., priority 2002, published 2008)
